# Results from patent US8575376B2, “Steroide anionic compounds, method of their production, usage and pharmaceutical preparation involving them” (Ustav Organicke Chemie A Biochemie Akademie Ved Ceske …, priority 2009, dated 2013).
# Assays:
# [1] = molecular target: T1, recombinant NR1/NR2B receptors (Rattus norvegicus, UniProt P35439+Q00960); conditions: 100 μM pregnanolone sulphate, recombinant NR1/NR2B receptors (Petrovic et al., 2005); listed as preganolone sulphate; cited from earlier work
# T1 construct: expressed in transfected cells; host or cells: HEK293 cells (ATCC CRL1573)
# T1 sequence (Q00960 27-1482, other chains not shown): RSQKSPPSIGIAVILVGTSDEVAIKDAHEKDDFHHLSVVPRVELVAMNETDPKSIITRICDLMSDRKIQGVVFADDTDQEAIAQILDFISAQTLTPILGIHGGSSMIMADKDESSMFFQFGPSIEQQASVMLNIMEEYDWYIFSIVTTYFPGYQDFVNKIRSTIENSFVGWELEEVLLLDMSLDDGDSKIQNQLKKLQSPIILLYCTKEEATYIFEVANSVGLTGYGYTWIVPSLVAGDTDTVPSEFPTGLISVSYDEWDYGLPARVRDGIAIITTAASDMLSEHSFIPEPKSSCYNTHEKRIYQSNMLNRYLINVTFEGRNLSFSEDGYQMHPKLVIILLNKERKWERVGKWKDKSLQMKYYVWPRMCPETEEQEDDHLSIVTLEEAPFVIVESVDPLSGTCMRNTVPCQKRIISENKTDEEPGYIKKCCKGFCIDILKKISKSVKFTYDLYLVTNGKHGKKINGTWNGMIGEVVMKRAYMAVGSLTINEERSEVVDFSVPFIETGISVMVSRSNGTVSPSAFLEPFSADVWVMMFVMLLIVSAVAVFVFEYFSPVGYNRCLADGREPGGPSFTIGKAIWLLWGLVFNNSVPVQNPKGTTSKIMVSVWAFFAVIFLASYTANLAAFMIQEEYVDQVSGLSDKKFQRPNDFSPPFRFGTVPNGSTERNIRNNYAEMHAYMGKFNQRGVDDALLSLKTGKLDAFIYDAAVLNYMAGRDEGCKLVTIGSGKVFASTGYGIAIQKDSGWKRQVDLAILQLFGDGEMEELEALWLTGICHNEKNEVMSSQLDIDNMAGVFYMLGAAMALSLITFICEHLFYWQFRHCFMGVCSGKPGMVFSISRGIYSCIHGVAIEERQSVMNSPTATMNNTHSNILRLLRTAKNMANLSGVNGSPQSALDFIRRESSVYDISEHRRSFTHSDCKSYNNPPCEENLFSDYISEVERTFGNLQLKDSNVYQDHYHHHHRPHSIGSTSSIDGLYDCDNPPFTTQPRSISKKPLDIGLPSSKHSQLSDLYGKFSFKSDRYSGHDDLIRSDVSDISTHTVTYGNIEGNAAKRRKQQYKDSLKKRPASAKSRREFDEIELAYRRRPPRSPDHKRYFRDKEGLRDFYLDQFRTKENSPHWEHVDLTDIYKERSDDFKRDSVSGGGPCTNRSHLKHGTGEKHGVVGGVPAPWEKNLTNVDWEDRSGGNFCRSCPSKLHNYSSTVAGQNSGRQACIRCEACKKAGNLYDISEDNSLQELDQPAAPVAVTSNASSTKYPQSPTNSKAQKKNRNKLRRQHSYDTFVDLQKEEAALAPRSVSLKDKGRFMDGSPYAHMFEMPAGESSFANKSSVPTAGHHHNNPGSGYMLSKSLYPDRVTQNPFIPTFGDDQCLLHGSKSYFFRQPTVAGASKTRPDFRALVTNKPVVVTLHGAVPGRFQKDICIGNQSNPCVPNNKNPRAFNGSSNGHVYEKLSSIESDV
# [2] = test system: NMDA receptor on hippocampal neurons; conditions: 100 μM pregnanolone sulphate, responses to 100 μM NMDA, hippocampal neurons (Petrovic et al., 2005); cited from earlier work
# [3] = molecular target: T1, recombinant NR1/NR2B receptors; experiment: Patch-clamp, inhibition of glutamate responses of recombinant NMDA receptors in transfected HEK293 cells; format: cell-based; conditions: for IC50: calculated from relative inhibition with Hill's coefficient 1.2; for Relative inhibition effect (%): responses to 1 mM glutamate, -60 mV, HEK293 NR1-1a/NR2B, steroid 50, 100 or 200 μM
# C6 glioma cell line = experiment: Growth of glioma cells in culture; format: cell-based; conditions: 0.1 and 1 μg in 50 ml β-cyclodextrine solution, 3 div + 6 days
# Description: The effect of compound from the example 9 (the model molecule) on growth of glioma cells was studied on C6 glioma cell line (ATTC, Rockville). The model molecule was tested at doses of 0.1 and 1 μg dissolved in 50 ml of β-cyclodextrine solution. Parallel control groups were administered by cholesterol at doses of 0.1 and 1 μg dissolved in 50 ml of β-cyclodextrine solution. The last group included in the experiment was left intact without any application.
# The cells were cultivated in vitro for 3 days (div). Afterwards tested molecule was applied and the cell culture was studied for additional 6 days. Olympus microscope with phase contrast and 200× magnification was used for the cell monitoring.
# rats [4] = experiment: Open-field locomotion in MK-801 animal model of schizophrenia; format: in vivo, rat; conditions: substance alone; Example 9 0.1 and 1 mg/kg, MK-801 0.1 mg/kg
# Description: The effect of the compound from example 9 in doses of 0.1 mg/kg and 1 mg/kg on locomotor activity in open field test was evaluated. Locomotor activity expressed as a total distance travelled during 30 min exploration of a box (68×68×30 cm) located in a sound proof room was measured using a video tracking system for automation of the behavioural experiments (Noldus, EthoVision, Version 2.1.).
# rats [5] = experiment: Active allothetic place avoidance (AAPA) task, compound applied alone; format: in vivo, rat
# Description: The effect of compound from Example 9 on cognitive behaviors and locomotion was assessed using active allothetic place avoidance (AAPA) task, which requires intact hippocampi and ability of animals to navigate in space using distinct reference frames (spatial navigation and “cognitive coordination”) (Wesierska et al., 2005) and it also allows measuring changes in the accompanying locomotor activity. AAPA task training involves animals trained to move over a slowly rotating uniform circular arena, on which a prohibited sector is defined, entering which is punished by a mild footshock. A shock sector and its position can be determined solely by its relationship to distal orienting cues in the room (Stuchlik et al., 2008).
# This task is highly dependent upon hippocampal formation, with unilateral reversible ablation of this structure with TTX leading to avoidance deficit (Cimadevilla et al., 2001). Animals solving this task should walk in a direction opposite to arena rotation; otherwise it would be repeatedly brought to a fixed sector by arena rotation. We conducted 4 acquisition session of AAPA task, during which the sector location was always reinforced and remained stable throughout the training. Each session lasted 20 min.
# Control animals obtained saline intraperitoneally (i.p.) whilst experimental groups received subcutaneous (s.c.) injections of the compound from Example 9 at doses 1 mg/kg and 10 mg/kg (dissolved in cyclodextrin). Solution of compound from Example 9 (1 mg/2 ml or 10 mg/2 ml in cyclodextrin) was applied s.c. at a volume 2 ml/kg of body weight (b.w.). Intraperitonal application of dizocilpine (a non-competitive NMDA receptor antagonist; showing significant neuroprotective activity but exerting cognition-disturbing and psychotomimetic effects) was used as a positive control. Dizocilpine was applied at doses 0.1 mg/kg, 0.2 mg/kg and 0.3 mg/kg. It is worth noting that dizocilpine (albeit its experimental neuroprotective activity) is often used to model schizophrenia-like behaviors in […] and it has been repeatedly shown to exert a dose-dependent learning deficit and hyperlocomotion.
# [6] = Example 9 1 and 10 mg/kg s.c., dizocilpine 0.1-0.3 mg/kg i.p.
Molecule,IC50 [3] [µM],Relative inhibition effect (%) [3] [%],further results
20-oxo-5beta-pregnan-3alpha-yl sulfate [Pregnanolone sulphate],55,,mean inhibition effect [1]: 67.2±8.2%; mean inhibition effect [2]: 71.3±5.0%
"CC(=O)[C@H]1CC[C@H]2[C@@H]3CC[C@@H]4C[C@H](OC(=O)[C@@H](N)CC(=O)O)CC[C@]4(C)[C@H]3CC[C@]12C [Example 3, 20-Oxo-5β-pregnan-3α-yl L-aspartyl 1-ester]",51,83.6 ± 2.7,
"CC(=O)[C@H]1CC[C@H]2[C@@H]3CC[C@@H]4C[C@H](OC(=O)CCCCC(=O)O)CC[C@]4(C)[C@H]3CC[C@]12C [Example 13, 20-Oxo-5β-pregnan-3α-yl-adipyl 1-ester]",40,87.3 ± 8.9,
"CC(=O)[C@H]1CC[C@H]2[C@@H]3CC[C@@H]4C[C@H](OC(=O)CCCCCC(=O)O)CC[C@]4(C)[C@H]3CC[C@]12C [Example 14, 20-Oxo-5β-pregnan-3α-yl 6-carboxyhexanoate]",135,61.5 ± 10.6,
"CC(=O)[C@H]1CC[C@H]2[C@@H]3CC[C@@H]4C[C@H](OC(=O)CCCCCCC(=O)O)CC[C@]4(C)[C@H]3CC[C@]12C [Example 15, 20-Oxo-5β-pregnan-3α-yl 7-carboxyheptanoate]",175,54.0 ± 10.8,
"CC(=O)[C@H]1CC[C@H]2[C@@H]3CC[C@@H]4C[C@H](OC(=O)/C=C\C(=O)O)CC[C@]4(C)[C@H]3CC[C@]12C [Example 17, 20-Oxo-5β-pregnan-3α-yl (Z)-3-carboxyprop-2-enoate]",14,81.6 ± 2.7,
"CC(=O)[C@H]1CC[C@H]2[C@@H]3CC[C@@H]4C[C@H](OC(=O)C(C)CC(=O)O)CC[C@]4(C)[C@H]3CC[C@]12C (stereo partly drawn) [Example 19, 20-Oxo-5β-pregnan-3α-yl 3-carboxy-ξ-methyl-propanoate]",30,80.9 ± 3.6,
"COC(=O)CN[C@@H]1CC[C@@]2(C)[C@H](CC[C@@H]3[C@@H]2CC[C@]2(C)[C@@H](C(C)=O)CC[C@@H]32)C1.Cl [Example 26, N-(20-Oxo-5β-pregnan-3α-yl) glycine methylester hydrochloride]",250,43.4 ± 3.4,
"CC(C)CCC[C@@H](C)[C@H]1CC[C@H]2[C@@H]3CC=C4C[C@@H](O)CC[C@]4(C)[C@H]3CC[C@]12C [cholesterol, reference compound]",,,effect on growth of glioma cells (C6 glioma cell line): slightly apparent
C[C@]12N[C@H](Cc3ccccc31)c1ccccc12 [dizocilpine],,,"locomotion in open field (total distance, 30 min) (rats [4]): hyperlocomotion state induced by MK-801; maximum time avoided in AAPA (rats [5]; [6]): significantly decreased rats' performance; number of entrances into shock sector in AAPA (rats [5]; [6]): dose-dependently disrupted this parameter; total distance traveled in AAPA (locomotor activity) (rats [5]; Example 9 1 and 10 mg/kg s.c., dizocilpine 0.1-0.3 mg/kg i.p., 20-min sessions): dose-dependently and consistently stimulated the locomotor activity; locomotor activity in AAPA (rats [5]; dizocilpine 0.1 mg/kg i.p.): hyperlocomotion was not observed; locomotor activity in AAPA (rats [5]; dizocilpine 0.2 mg/kg i.p.): marked locomotor hyperactivity; locomotor activity in AAPA (rats [5]; dizocilpine 0.3 mg/kg i.p.): even more dramatic hyperlocomotion"
